Results from patent publication US11414416B1, “Compounds and uses thereof” (Foghorn Therapeutics Inc., priority 2019, dated 2022).

How the values were obtained:
BRD9 bromodomain = BRD9 bromodomain (Homo sapiens (Human), UniProt Q9H8M2); test: BRD9 bromodomain TR-FRET competition binding assay; conditions: Table 4; competition with biotinylated ligand, 3 nM Flag-BRD9, 90 minutes
Procedure, shortened: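 TEV-cleaved Flag-BRD9 (P133-K239, 3 nM) competed against 3.75 nM biotinylated ligand, with 7.5 nM APC-streptavidin and 0.2 nM Eu-W1024 anti-FLAG, in HEPES pH 7.4, NaCl, TCEP, Tween-20, BSA. Compounds were serially diluted 3-fold; after 90 min at room temperature the 665/615 nm emission ratio was read.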

[1] = target: Nanoluciferase-BRD9 fusion protein (Homo sapiens (Human), UniProt Q9H8M2); test: SYO1 BRD9 NanoLuc degradation assay; assay type: cell-based; conditions: Table 5A, SYO-1 cells expressing 3×FLAG-NLuc-BRD9, 6 hours; for DC50: read-out: SYO1 BRD9-NanoLuc degradation IC50
Nanoluciferase-BRD9 fusion protein, sequence (Q9H8M2 whole entry, the tested form may be a part): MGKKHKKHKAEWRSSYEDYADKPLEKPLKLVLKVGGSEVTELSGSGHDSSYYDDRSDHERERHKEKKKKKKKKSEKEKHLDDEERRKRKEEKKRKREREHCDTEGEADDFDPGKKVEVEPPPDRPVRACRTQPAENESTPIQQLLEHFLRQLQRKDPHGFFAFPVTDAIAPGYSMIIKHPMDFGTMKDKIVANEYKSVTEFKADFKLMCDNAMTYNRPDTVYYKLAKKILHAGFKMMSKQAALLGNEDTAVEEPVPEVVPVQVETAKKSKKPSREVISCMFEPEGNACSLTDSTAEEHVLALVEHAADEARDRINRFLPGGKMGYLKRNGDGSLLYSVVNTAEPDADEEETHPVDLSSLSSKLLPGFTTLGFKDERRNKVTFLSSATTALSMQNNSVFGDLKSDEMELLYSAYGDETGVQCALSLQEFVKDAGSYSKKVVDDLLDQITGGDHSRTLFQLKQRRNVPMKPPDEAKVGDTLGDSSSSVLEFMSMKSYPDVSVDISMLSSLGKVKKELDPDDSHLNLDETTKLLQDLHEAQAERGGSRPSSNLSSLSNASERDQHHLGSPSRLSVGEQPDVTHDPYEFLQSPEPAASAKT
Procedure, shortened: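 Degradation was read as loss of nanoluciferase signal (Nano-Glo) after 6 h compound exposure in a stable SYO-1 line carrying 3×FLAG-NLuc-BRD9 (8000 cells/well). Normalised between DMSO (high) and a 1 μM known BRD9 degrader (low).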

BRD9 bromodomain, sequence (Q9H8M2 133-239): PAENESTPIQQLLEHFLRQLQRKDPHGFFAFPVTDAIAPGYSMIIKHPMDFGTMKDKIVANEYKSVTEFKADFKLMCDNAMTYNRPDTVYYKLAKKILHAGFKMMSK

SMILES | IC50 (BRD9 bromodomain) [nM] | IC50 [1] [nM] | DC50 [1] [nM]
COc1cc(-c2cn(C)c(=O)c3cnccc23)cc(OC)c1CN1CC2(CCC2NC(=O)CCOCCOc2cccc3c2C(=O)N(C2CCC(=O)NC2=O)C3=O)C1 (stereo not shown) [Compound D84] | 10 to 100 | > 1000 | 
COc1cc(-c2cn(C)c(=O)c3cnccc23)cc(OC)c1CN1CC2(C1)CN(C(=O)COc1cccc3c1C(=O)N(C1CCC(=O)NC1=O)C3=O)C2 (stereo not shown) [Compound D36, 4-(2-(6-(2,6-dimethoxy-4-(2-methyl-1-oxo-1,2-dihydro-2,7-naphthyridin-4-yl)benzyl)-2,6-diazaspiro[3.3]heptan-2-yl)-2-oxoethoxy)-2-(2,6-dioxopiperidin-3-yl)isoindoline-1,3-dione] | < 10 |  | 100 to 1000
COc1cc(-c2cn(C)c(=O)c3cnccc23)cc(OC)c1CN(C)CC1CC2(CCN(C(=O)CCOCCOc3cccc4c3C(=O)N(C3CCC(=O)NC3=O)C4=O)CC2)O1 (stereo not shown) [Compound D159] | < 10 |  | 10 to 100
COc1cc(-c2cn(C)c(=O)c3cnccc23)cc(OC)c1CN1CC(S(=O)(=O)NCCOCCOCCNc2cccc3c2C(=O)N(C2CCC(=O)NC2=O)C3=O)C1 (stereo not shown) [Compound D38, 1-[[2,6-dimethoxy-4-(2-methyl-1-oxo-2,7-naphthyridin-4-yl)phenyl]methyl]-N-[2-[2-(2-[[2-(2,6-dioxopiperidin-3-yl)-1,3-dioxoisoindol-4-yl]amino]ethoxy)ethoxy]ethyl]azetidine-3-sulfonamide formic acid] | < 10 | < 10 | 
COc1cc(-c2cn(C)c(=O)c3cnccc23)cc(OC)c1CN1CC2(CCN(C(=O)CCOCCOc3ccc4c(c3)C(=O)N(C3CCC(=O)NC3=O)C4=O)CC2)C1 (stereo not shown) [Compound D118] | < 10 |  | 10 to 100
COc1cc(-c2cn(C)c(=O)c3cnccc23)cc(OC)c1CN1CCC2(C[C@H]2NC(=O)CCOCCOc2cccc3c2C(=O)N(C2CCC(=O)NC2=O)C3=O)C1 (stereo partly shown) [Compound D111] | < 10 |  | 10 to 100
COc1cc(-c2cn(C)c(=O)c3cnccc23)cc(OC)c1CN1CC2C1CCN2C(=O)CCOCCOc1cccc2c1C(=O)N(C1CCC(=O)NC1=O)C2=O (stereo not shown) [Compound D113] | < 10 | < 10 | 
COc1cc(-c2cn(C)c(=O)c3cnccc23)cc(OC)c1CN(C)CC1CC2(CCN(C(=O)CCOCCOc3cccc4c3C(=O)N(C3CCC(=O)NC3=O)C4=O)CC2)C1 (stereo not shown) [Compound D165] | 10 to 100 | 10 to 100 | 
COc1cc(-c2cn(C)c(=O)c3cnccc23)cc(OC)c1CN(C)CCCOCCN1CCN(c2ccc3c(c2)C(=O)N(C2CCC(=O)NC2=O)C3=O)CC1 (stereo not shown) [Compound D70, 5-(4-[2-[3-([[2,6-dimethoxy-4-(2-methyl-1-oxo-2,7-naphthyridin-4-yl)phenyl]methyl](methyl)amino)propoxy]ethyl]piperazin-1-yl)-2-(2,6-dioxopiperidin-3-yl)isoindole-1,3-dione formic acid] | 10 to 100 | 10 to 100 | 
COc1cc(-c2cn(C)c(=O)c3cnccc23)cc(OC)c1CN(C)CC12CC(NC(=O)CCOCCOCCNc3cccc4c3C(=O)N(C3CCC(=O)NC3=O)C4=O)(C1)C2 (stereo not shown) [Compound D68, N-[3-[([[2,6-dimethoxy-4-(2-methyl-1-oxo-2,7-naphthyridin-4-yl)phenyl]methyl](methyl)amino)methyl]bicyclo[1.1.1]pentan-1-yl]-3-[2-(2-[[2-(2,6-dioxopiperidin-3-yl)-1,3-dioxoisoindol-4-yl]amino]ethoxy)ethoxy]propanamide formic acid] | < 10 |  | 100 to 1000
COc1cc(-c2cn(C)c(=O)c3cc(O)ccc23)cc(OC)c1CN1CCC2(CC1)CN(C(=O)CCCOc1cccc3c1C(=O)N(C1CCC(=O)NC1=O)C3=O)CCO2 (stereo not shown) [Compound D54, 2-(2,6-dioxopiperidin-3-yl)-4-[4-(9-[[4-(7-hydroxy-2-methyl-1-oxoisoquinolin-4-yl)-2,6-dimethoxyphenyl]methyl]-1-oxa-4,9-diazaspiro[5.5]undecan-4-yl)-4-oxobutoxy]isoindole-1,3-dione formic acid] | 10 to 100 | 10 to 100 | 
COc1cc(-c2cn(C)c(=O)c3cnccc23)cc(OC)c1CN1CC(NC(=O)CCCCCOc2cccc3c2C(=O)N(C2CCC(=O)NC2=O)C3=O)C1 (stereo not shown) [Compound D5, N-(1-[[2,6-dimethoxy-4-(2-methyl-1-oxo-1,2-dihydro-2,7-naphthyridin-4-yl)phenyl]methyl]azetidin-3-yl)-6-[[2-(2,6-dioxopiperidin-3-yl)-1,3-dioxo-2,3-dihydro-1H-isoindol-4-yl]oxy]hexanamide] | < 10 |  | 10 to 100
COc1cc(-c2cn(C)c(=O)c3cnccc23)cc(OC)c1CN(C)CC1CC2CN(C(=O)CCOCCOc3cccc4c3C(=O)N(C3CCC(=O)NC3=O)C4=O)C[C@H]2C1 (stereo partly shown) [Compound D177] | < 10 |  | 10 to 100

Now from value to compound:

IC50 (BRD9 bromodomain) [nM] | IC50 [1] [nM] | DC50 [1] [nM] | SMILES
< 10 | < 10 |  | COc1cc(-c2cn(C)c(=O)c3cnccc23)cc(OC)c1CN1CC(S(=O)(=O)NCCCCCCCCNc2cccc3c2C(=O)N(C2CCC(=O)NC2=O)C3=O)C1 (stereo not shown) [Compound D12, 1-[[2,6-dimethoxy-4-(2-methyl-1-oxo-1,2-dihydro-2,7-naphthyridin-4-yl)phenyl]methyl]-N-(8-[[2-(2,6-dioxopiperidin-3-yl)-1,3-dioxo-2,3-dihydro-1H-isoindol-4-yl]amino]octyl)azetidine-3-sulfonamide]
< 10 | < 10 |  | COc1cc(-c2cn(C)c(=O)c3cnccc23)cc(OC)c1CN1CC(C(=O)N(C)CCCCCNc2cccc3c2C(=O)N(C2CCC(=O)NC2=O)C3=O)C1 (stereo not shown) [Compound D15, 1-[[2,6-dimethoxy-4-(2-methyl-1-oxo-1,2-dihydro-2,7-naphthyridin-4-yl)phenyl]methyl]-N-(5-[[2-(2,6-dioxopiperidin-3-yl)-1,3-dioxo-2,3-dihydro-1H-isoindol-4-yl]amino]pentyl)-N-methylazetidine-3-carboxamide formic acid]
< 10 | < 10 |  | COc1cc(-c2cn(C)c(=O)c3cnccc23)cc(OC)c1CN(C)CC1CC2(CCN(C(=O)CCOCCOc3ccc4c(c3)C(=O)N(C3CCC(=O)NC3=O)C4=O)CC2)O1 (stereo not shown) [Compound D167]
< 10 | < 10 |  | COc1cc(-c2cn(C)c(=O)c3cnccc23)cc(OC)c1CN1CC2(CCN(C(=O)CCOCCOc3ccc4c(c3)C(=O)N(C3CCC(=O)NC3=O)C4=O)C2)C1 (stereo not shown) [Compound D122]
10 to 100 | > 1000 |  | COc1cc(-c2cn(C)c(=O)c3cnccc23)cc(OC)c1CN1CC[C@H]1C(=O)NCCN(C)CCNC(=O)COc1ccc2c(c1)C(=O)N(C1CCC(=O)NC1=O)C2=O (stereo partly drawn) [Compound D26, N-[2-[(2-[[(2S)-1-[[2,6-dimethoxy-4-(2-methyl-1-oxo-1,2-dihydro-2,7-naphthyridin-4-yl)phenyl]methyl]azetidin-2-yl]formamido]ethyl)(methyl)amino]ethyl]-2-[[2-(2,6-dioxopiperidin-3-yl)-1,3-dioxo-2,3-dihydro-1H-isoindol-5-yl]oxy]acetamide]
10 to 100 | 100 to 1000 |  | COc1cc(-c2cn(C)c(=O)c3cnccc23)cc(OC)c1CN1CCC12CN(C(=O)CCOCCOc1cccc3c1C(=O)N(C1CCC(=O)NC1=O)C3=O)C2 (stereo not shown) [Compound D86]
< 10 | < 10 |  | COc1cc(-c2cn(C)c(=O)c3cnccc23)cc(OC)c1CN1CC2CN(C(=O)CCOCCOc3ccc4c(c3)C(=O)N(C3CCC(=O)NC3=O)C4=O)CCC21 (stereo not shown) [Compound D100]
< 10 | < 10 |  | COc1cc(-c2cn(C)c(=O)c3cnccc23)cc(OC)c1CN(C)CC12CC(NC(=O)CCCCOc3cccc4c3C(=O)N(C3CCC(=O)NC3=O)C4=O)(C1)C2 (stereo not shown) [Compound D69, N-[3-[([[2,6-dimethoxy-4-(2-methyl-1-oxo-2,7-naphthyridin-4-yl)phenyl]methyl](methyl)amino)methyl]bicyclo[1.1.1]pentan-1-yl]-5-[[2-(2,6-dioxopiperidin-3-yl)-1,3-dioxoisoindol-4-yl]oxy]pentanamide]
< 10 | < 10 |  | COc1cc(-c2cn(C)c(=O)c3cnccc23)cc(OC)c1CN1CC(S(=O)(=O)NCCCCCCNc2ccc3c(c2)C(=O)N(C2CCC(=O)NC2=O)C3=O)C1 (stereo not shown) [Compound D67, 1-[[2,6-dimethoxy-4-(2-methyl-1-oxo-1,2-dihydro-2,7-naphthyridin-4-yl)phenyl]methyl]-N-(6-[[2-(2,6-dioxopiperidin-3-yl)-1,3-dioxo-2,3-dihydro-1H-isoindol-5-yl]amino]hexyl)azetidine-3-sulfonamide formic acid]
< 10 |  | 10 to 100 | COc1cc(-c2cn(C)c(=O)c3cnccc23)cc(OC)c1CN(C)CC(=O)N1CCC(C2CCN(C(=O)COc3cccc4c3C(=O)N(C3CCC(=O)NC3=O)C4=O)CC2)CC1 (stereo not shown) [Compound D2, 4-(2-[1-[2-([[2,6-dimethoxy-4-(2-methyl-1-oxo-1,2-dihydro-2,7-naphthyridin-4-yl)phenyl]methyl](methyl)amino)acetyl]-[4,4-bipiperidin]-1-yl]-2-oxoethoxy)-2-(2,6-dioxopiperidin-3-yl)-2,3-dihydro-1H-isoindole-1,3-dione]
